From ChEMBL document CHEMBL5344477, “Discovery of benzoheterocyclic-substituted amide derivatives as apoptosis signal-regulating kinase 1 (ASK1) inhibitors” (RSC Med Chem, 2024)

Experiments:
[1] = Half life in Sprague-Dawley rat at 0.5 mg/kg, iv measured upto 24 hrs by LC-MS/MS analysis; format: ADME, organism-based; settings: in vivo
[2] = Metabolic stability in rat liver microsomes assessed as clearance at 1 uM measured upto 90 mins by LC-MS/MS analysis; format: ADME, Microsome; settings: read-out: CLH
[3] = Metabolic stability in human liver microsomes assessed as clearance at 1 uM measured upto 90 mins by LC-MS/MS analysis; format: ADME, Microsome; settings: read-out: CLH
[4] = AUClast in Sprague-Dawley rat at 2.5 mg/kg, po measured upto 24 hrs by LC-MS/MS analysis; format: ADME, organism-based; parameters: dose 2.5 mg/kg, time < 24 hrs, route po; settings: in vivo
[5] = Apparent […] clearance in Sprague-Dawley rat at 0.5 mg/kg, iv measured upto 24 hrs by LC-MS/MS analysis; format: ADME, organism-based; settings: in vivo
[6] = AUClast in Sprague-Dawley rat at 0.5 mg/kg, iv measured upto 24 hrs by LC-MS/MS analysis; format: ADME, organism-based; parameters: time < 24 hrs, dose 0.5 mg/kg, route iv; settings: in vivo
[7] = Cmax in Sprague-Dawley rat at 2.5 mg/kg, po measured upto 24 hrs by LC-MS/MS analysis; format: ADME, organism-based; parameters: dose 2.5 mg/kg, time < 24 hrs, route po; settings: in vivo
[8] = Half life in Sprague-Dawley rat at 2.5 mg/kg, po measured upto 24 hrs by LC-MS/MS analysis; format: ADME, organism-based; settings: in vivo
[9] = Cmax in Sprague-Dawley rat at 0.5 mg/kg, iv measured upto 24 hrs by LC-MS/MS analysis; format: ADME, organism-based; parameters: time < 24 hrs, dose 0.5 mg/kg, route iv; settings: in vivo
[10] = Metabolic stability in rat liver microsomes assessed as half life at 1 uM measured upto 90 mins by LC-MS/MS analysis; format: ADME, Microsome
[11] = Oral bioavailability in Sprague-Dawley rat at 2.5 mg/kg measured upto 24 hrs by LC-MS/MS analysis; format: ADME, organism-based; settings: in vivo
[12] = Volume of distribution at steady state in Sprague-Dawley rat at 0.5 mg/kg, iv measured upto 24 hrs by LC-MS/MS analysis; format: ADME, organism-based; settings: in vivo, read-out: Vdss
[13] = Metabolic stability in human liver microsomes assessed as half life at 1 uM measured upto 90 mins by LC-MS/MS analysis; format: ADME, Microsome
[14] = Cmax in Sprague-Dawley rat at 5 mg/kg, po measured upto 24 hrs by LC-MS/MS analysis; format: ADME, organism-based; parameters: dose 5 mg/kg, time < 24 hrs, route po; settings: in vivo
[15] = Oral bioavailability in Sprague-Dawley rat at 5 mg/kg measured upto 24 hrs by LC-MS/MS analysis; format: ADME, organism-based; settings: in vivo
[16] = Apparent […] clearance in Sprague-Dawley rat at 1 mg/kg, iv measured upto 24 hrs by LC-MS/MS analysis; format: ADME, organism-based; settings: in vivo
[17] = Half life in Sprague-Dawley rat at 5 mg/kg, po measured upto 24 hrs by LC-MS/MS analysis; format: ADME, organism-based; settings: in vivo
[18] = AUClast in Sprague-Dawley rat at 5 mg/kg, po measured upto 24 hrs by LC-MS/MS analysis; format: ADME, organism-based; parameters: dose 5 mg/kg, time < 24 hrs, route po; settings: in vivo
[19] = Half life in Sprague-Dawley rat at 1 mg/kg, iv measured upto 24 hrs by LC-MS/MS analysis; format: ADME, organism-based; settings: in vivo
[20] = Volume of distribution at steady state in Sprague-Dawley rat at 1 mg/kg, iv measured upto 24 hrs by LC-MS/MS analysis; format: ADME, organism-based; settings: in vivo, read-out: Vdss
[21] = Cmax in Sprague-Dawley rat at 1 mg/kg, iv measured upto 24 hrs by LC-MS/MS analysis; format: ADME, organism-based; parameters: dose 1 mg/kg, time < 24 hrs, route iv; settings: in vivo
[22] = AUClast in Sprague-Dawley rat at 1 mg/kg, iv measured upto 24 hrs by LC-MS/MS analysis; format: ADME, organism-based; parameters: dose 1 mg/kg, time < 24 hrs, route iv; settings: in vivo

Compound | CLint scaled at 1 µM [2] [mL/min/kg] | CLint scaled at 1 µM [3] [mL/min/kg] | half-life at 1 µM [10] [h] | half-life at 1 µM [13] [h] | Cmax [14] [ng/mL] | bioavailability [15] [%] | CL/F [16] [mL/min/kg] | half-life [17] [h] | AUC(0-t) at 24 h [18] [ng·h/mL] | half-life [19] [h] | Vd [20] [L/kg] | Cmax [21] [ng/mL] | AUC(0-t) at 24 h [22] [ng·h/mL] | also measured
CC(C)n1cnnc1-c1cccc(NC(=O)c2cc3c(cc2F)OC(C)(C)C(=O)N3C)n1 | 27.3 | 5.5 | 1.52 | 5.26 | – | – | – | – | – | – | – | – | – | half-life [1]: 0.71 h; AUC(0-t) at 24 h [4]: 767 ng·h/mL; CL/F [5]: 38 mL/min/kg; AUC(0-t) at 24 h [6]: 218 ng·h/mL; Cmax [7]: 417 ng/mL; half-life [8]: 1.3 h; Cmax [9]: 239 ng/mL; bioavailability [11]: 72.2%; Vd [12]: 1.88 L/kg
CC(C)n1cnnc1-c1cccc(NC(=O)c2cc3c(cc2F)OC(C)(C)C(=O)N3)n1 | – | – | – | – | – | – | – | – | – | – | – | – | – | half-life [1]: 0.74 h; AUC(0-t) at 24 h [4]: 1260 ng·h/mL; CL/F [5]: 30 mL/min/kg; AUC(0-t) at 24 h [6]: 276 ng·h/mL; Cmax [7]: 554 ng/mL; half-life [8]: 1.39 h; Cmax [9]: 350 ng/mL; bioavailability [11]: 95%; Vd [12]: 1.35 L/kg
O=C1CCCc2cc(F)c(C(=O)Nc3cccc(-c4nncn4C4CC4)n3)cc2N1 | 4.7 | 2.4 | 8.87 | 11.9 | 829 | 47 | 14.2 | 3.82 | 2720 | 0.71 | 0.7 | 1220 | 1170 | –
CC(C)n1cnnc1-c1cccc(NC(=O)c2cc3c(cc2F)OCC(=O)N3)n1 | 13.7 | 3 | 3.02 | 9.74 | 1260 | 56.4 | 10.2 | 1.86 | 4290 | 1.11 | 0.85 | 1040 | 1630 | –
O=C(Nc1cccc(-c2nncn2CC2CC2)c1)c1cc2c(cc1F)OCc1cncn1-2 | 248 | 25.8 | 0.167 | 1.12 | 635 | 40.2 | 38.5 | 0.97 | 865 | 0.55 | 1.08 | 812 | 431 | –
CC(CO)n1cnnc1-c1cccc(NC(=O)c2cc3c(cc2F)OCC(=O)N3)n1 (stereo not drawn) | 19.5 | 9.8 | 2.12 | 2.96 | 27 | 2.1 | 72.5 | 1.55 | 21 | 0.22 | 1.25 | 514 | 229 | –
O=C1COc2cc(F)c(C(=O)Nc3cccc(-c4nncn4C4CCCC4)n3)cc2N1 | 70.8 | 94.3 | 0.585 | 0.307 | 1490 | 77.7 | 18.2 | 2.36 | 3390 | 0.86 | 0.97 | 1080 | 919 | –
CC(C)n1cnnc1-c1cccc(NC(=O)c2cc3c(cc2F)OCC(=O)N3C)n1 | 16.8 | 5.1 | 2.46 | 5.67 | 1830 | 97.9 | 7.5 | 2.11 | 10900 | 1.62 | 1.49 | 779 | 2220 | –

The next lines start with results.

CLint scaled at 1 µM [2] [mL/min/kg] | CLint scaled at 1 µM [3] [mL/min/kg] | half-life at 1 µM [10] [h] | half-life at 1 µM [13] [h] | Cmax [14] [ng/mL] | bioavailability [15] [%] | CL/F [16] [mL/min/kg] | half-life [17] [h] | AUC(0-t) at 24 h [18] [ng·h/mL] | half-life [19] [h] | Vd [20] [L/kg] | Cmax [21] [ng/mL] | AUC(0-t) at 24 h [22] [ng·h/mL] | Compound | also measured
14 | 8.5 | 2.96 | 3.41 | 28 | 5.9 | 76.7 | 1.51 | 61 | 0.63 | 2.36 | 440 | 216 | CC(CO)n1cnnc1-c1cccc(NC(=O)c2cc3c(cc2F)CCCC(=O)N3C)n1 (stereo not drawn) | –
10.4 | 7.8 | 3.97 | 3.72 | 341 | 33.2 | 36.8 | 1.44 | 712 | 0.8 | 1.44 | 758 | 449 | CC(C)n1cnnc1-c1cccc(NC(=O)c2cc3c(cc2F)CCCC(=O)N3C)c1 | –
6.6 | 3.3 | 6.24 | 8.8 | 1270 | 77.7 | 12.8 | 1.63 | 4830 | 1.24 | 1.07 | 1070 | 1270 | CC(C)n1cnnc1-c1cccc(NC(=O)c2cc3c(cc2F)CCCC(=O)N3)n1 | –
13.2 | 11.1 | 3.15 | 2.6 | 1850 | 121 | 12.2 | 1.97 | 7530 | 1.22 | 1.14 | 799 | 1340 | CN1C(=O)CCCc2cc(F)c(C(=O)Nc3cccc(-c4nncn4C4CC4)n3)cc21 | –
34.3 | 7.3 | 1.2 | 3.95 | 964 | 80.7 | 24.8 | 1.13 | 2660 | 0.86 | 1.32 | 594 | 668 | CC(C)n1cnnc1-c1cccc(NC(=O)c2cc3c(cc2F)CCC(=O)N3C)n1 | –
6.2 | 3.5 | 6.69 | 8.31 | 109 | 16 | 52 | 1.84 | 252 | 0.72 | 2.19 | 420 | 320 | CC(C)n1cnnc1-c1cccc(NC(=O)c2cc3c(cc2F)CCCC(=O)N3)c1 | –
